#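 How tested: cells in 96-well plates exposed to compound for 48 hours at five concentrations. At the GI50, growth is halved. The concentration for full growth arrest is given as TGI.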
# Experiments:
# Experiment in all cases: inhibition of tumour cell growth, NCI panel, 48 h
# NCI-H460 lung = tested on: NCI-H460 lung
# OVCAR-8 ovarian = tested on: OVCAR-8 ovarian
# SF-295 CNS = tested on: SF-295 CNS
# 786-0 renal = tested on: 786-0 renal
# OVCAR-3 ovarian = tested on: OVCAR-3 ovarian
# SF-268 CNS = tested on: SF-268 CNS
# NCI/ADR-RES ovarian = tested on: NCI/ADR-RES ovarian
# PC-3 prostate = tested on: PC-3 prostate
# SK-OV-3 ovarian = tested on: SK-OV-3 ovarian
# SNB-19 CNS = tested on: SNB-19 CNS
# SN12C renal = tested on: SN12C renal
# UO-31 renal = tested on: UO-31 renal
# MCF7 breast = tested on: MCF7 breast
# SK-MEL-5 melanoma = tested on: SK-MEL-5 melanoma
# DU-145 prostate = tested on: DU-145 prostate
# LOX IMVI melanoma = tested on: LOX IMVI melanoma
# HOP-92 NSCLC = tested on: HOP-92 NSCLC
# MOLT-4 leukemia = tested on: MOLT-4 leukemia
# ACHN renal = tested on: ACHN renal
# HCC-2998 colon = tested on: HCC-2998 colon
# K-562 leukemia = tested on: K-562 leukemia
# HCT-15 colon = tested on: HCT-15 colon
# KM12 colon = tested on: KM12 colon
# U251 CNS = tested on: U251 CNS
# COLO 205 colon = tested on: COLO 205 colon
# SF-539 CNS = tested on: SF-539 CNS
# NCI-H23 lung = tested on: NCI-H23 lung
# MDA-MB-435 = tested on: MDA-MB-435
# CAKI-1 renal = tested on: CAKI-1 renal
# RPMI-8226 leukemia = tested on: RPMI-8226 leukemia
# A549 NSCLC = tested on: A549 NSCLC
# CCRF-CEM leukemia = tested on: CCRF-CEM leukemia
# UACC-257 melanoma = tested on: UACC-257 melanoma
# OVCAR-5 ovarian = tested on: OVCAR-5 ovarian
# MALME-3M melanoma = tested on: MALME-3M melanoma
# HOP-62 NSCLC = tested on: HOP-62 NSCLC
# NCI-H522 lung = tested on: NCI-H522 lung
# RXF 393 renal = tested on: RXF 393 renal
# OVCAR-4 ovarian = tested on: OVCAR-4 ovarian
# EKVX NSCLC = tested on: EKVX NSCLC
# M14 melanoma = tested on: M14 melanoma
# UACC-62 melanoma = tested on: UACC-62 melanoma
# TK-10 renal = tested on: TK-10 renal
# NCI-H226 lung = tested on: NCI-H226 lung
# T-47D breast = tested on: T-47D breast
# A498 renal = tested on: A498 renal
# MDA-MB-231 breast = tested on: MDA-MB-231 breast
# HCT-116 colon = tested on: HCT-116 colon
# SK-MEL-28 melanoma = tested on: SK-MEL-28 melanoma
# HS 578T breast = tested on: HS 578T breast
# IGROV1 ovarian = tested on: IGROV1 ovarian
# BT-549 breast = tested on: BT-549 breast
# HT29 colon = tested on: HT29 colon
# SW-620 colon = tested on: SW-620 colon
# SK-MEL-2 melanoma = tested on: SK-MEL-2 melanoma
# SNB-75 CNS = tested on: SNB-75 CNS
# HL-60(TB) leukemia = tested on: HL-60(TB) leukemia
# SR leukemia = tested on: SR leukemia
compound,measurement,setting,value
C=C1C(=O)O[C@H]2[C@H]1CC/C(COC(=O)CSCCSCC(=O)OC/C1=C/CC[C@@]3(C)O[C@H]3[C@H]3OC(=O)C(=C)[C@@H]3CC1)=C\CC[C@@]1(C)O[C@@H]21,GI50,NCI-H460 lung,2.28 µM
same,TGI,NCI-H460 lung,6.43 µM
same,GI50,OVCAR-8 ovarian,1.97 µM
same,TGI,OVCAR-8 ovarian,4.6 µM
same,GI50,SF-295 CNS,2.29 µM
same,TGI,SF-295 CNS,5.76 µM
same,GI50,786-0 renal,1.64 µM
same,TGI,786-0 renal,3.27 µM
same,GI50,OVCAR-3 ovarian,1.15 µM
same,TGI,OVCAR-3 ovarian,2.44 µM
same,GI50,SF-268 CNS,1.71 µM
same,TGI,SF-268 CNS,4.08 µM
same,GI50,NCI/ADR-RES ovarian,3.61 µM
same,TGI,NCI/ADR-RES ovarian,16.7 µM
same,GI50,PC-3 prostate,2.5 µM
same,TGI,PC-3 prostate,8.33 µM
same,GI50,SK-OV-3 ovarian,4.48 µM
same,TGI,SK-OV-3 ovarian,15.3 µM
same,GI50,SNB-19 CNS,2.85 µM
same,TGI,SNB-19 CNS,9.61 µM
same,GI50,SN12C renal,2.19 µM
same,TGI,SN12C renal,5.34 µM
same,GI50,UO-31 renal,1.41 µM
same,TGI,UO-31 renal,2.75 µM
same,GI50,MCF7 breast,0.832 µM
same,TGI,MCF7 breast,2.66 µM
same,GI50,SK-MEL-5 melanoma,1.88 µM
same,TGI,SK-MEL-5 melanoma,3.72 µM
same,GI50,DU-145 prostate,1.77 µM
same,TGI,DU-145 prostate,3.37 µM
same,GI50,LOX IMVI melanoma,1.49 µM
same,TGI,LOX IMVI melanoma,2.92 µM
same,GI50,HOP-92 NSCLC,1.86 µM
same,TGI,HOP-92 NSCLC,3.82 µM
same,GI50,MOLT-4 leukemia,1.16 µM
same,TGI,MOLT-4 leukemia,3.89 µM
same,GI50,ACHN renal,1.7 µM
same,TGI,ACHN renal,3.23 µM
same,GI50,HCC-2998 colon,1.85 µM
same,TGI,HCC-2998 colon,3.52 µM
same,GI50,K-562 leukemia,1.17 µM
same,TGI,K-562 leukemia,25.7 µM
same,GI50,HCT-15 colon,1.55 µM
same,TGI,HCT-15 colon,3.01 µM
same,GI50,KM12 colon,2.08 µM
same,TGI,KM12 colon,4.06 µM
same,GI50,U251 CNS,1.66 µM
same,TGI,U251 CNS,3.51 µM
same,GI50,COLO 205 colon,1.48 µM
same,TGI,COLO 205 colon,2.95 µM
same,GI50,SF-539 CNS,1.55 µM
same,TGI,SF-539 CNS,3.12 µM
same,GI50,NCI-H23 lung,2.25 µM
same,TGI,NCI-H23 lung,5.38 µM
same,GI50,MDA-MB-435,2.18 µM
same,TGI,MDA-MB-435,5.22 µM
same,GI50,CAKI-1 renal,1.79 µM
same,TGI,CAKI-1 renal,3.31 µM
same,GI50,RPMI-8226 leukemia,1.32 µM
same,TGI,RPMI-8226 leukemia,4.48 µM
same,GI50,A549 NSCLC,2.72 µM
same,TGI,A549 NSCLC,8.21 µM
same,GI50,CCRF-CEM leukemia,0.468 µM
same,TGI,CCRF-CEM leukemia,3.24 µM
same,GI50,UACC-257 melanoma,1.93 µM
same,TGI,UACC-257 melanoma,3.93 µM
same,GI50,OVCAR-5 ovarian,2.04 µM
same,TGI,OVCAR-5 ovarian,4.58 µM
same,GI50,MALME-3M melanoma,1.48 µM
same,TGI,MALME-3M melanoma,3.33 µM
same,GI50,HOP-62 NSCLC,2.45 µM
same,TGI,HOP-62 NSCLC,7.38 µM
same,GI50,NCI-H522 lung,1.29 µM
same,TGI,NCI-H522 lung,2.8 µM
same,GI50,RXF 393 renal,1.55 µM
same,TGI,RXF 393 renal,3.03 µM
same,GI50,OVCAR-4 ovarian,2.38 µM
same,TGI,OVCAR-4 ovarian,6.05 µM
same,GI50,EKVX NSCLC,1.66 µM
same,TGI,EKVX NSCLC,3.7 µM
same,GI50,M14 melanoma,1.99 µM
same,TGI,M14 melanoma,4.34 µM
same,GI50,UACC-62 melanoma,2.31 µM
same,TGI,UACC-62 melanoma,5.16 µM
same,GI50,TK-10 renal,1.84 µM
same,TGI,TK-10 renal,3.29 µM
same,GI50,NCI-H226 lung,3.51 µM
same,TGI,NCI-H226 lung,13.6 µM
same,GI50,T-47D breast,1.63 µM
same,TGI,T-47D breast,3.5 µM
same,GI50,A498 renal,2.75 µM
same,TGI,A498 renal,10.7 µM
same,GI50,MDA-MB-231 breast,1.58 µM
same,TGI,MDA-MB-231 breast,3.14 µM
same,GI50,HCT-116 colon,1.17 µM
same,TGI,HCT-116 colon,2.64 µM
same,GI50,SK-MEL-28 melanoma,1.92 µM
same,TGI,SK-MEL-28 melanoma,3.81 µM
same,GI50,HS 578T breast,4.65 µM
same,TGI,HS 578T breast,38.9 µM
same,GI50,IGROV1 ovarian,2.35 µM
same,TGI,IGROV1 ovarian,5.6 µM
same,GI50,BT-549 breast,1.64 µM
same,TGI,BT-549 breast,3.27 µM
same,GI50,HT29 colon,1.36 µM
same,TGI,HT29 colon,2.68 µM
same,GI50,SW-620 colon,1.48 µM
same,TGI,SW-620 colon,3.45 µM
same,GI50,SK-MEL-2 melanoma,2.76 µM
same,TGI,SK-MEL-2 melanoma,6.64 µM
CCOC(=O)c1ccc(Nc2c3c(nc4ccccc24)CCCC3)cc1,TGI,NCI-H460 lung,> 100 µM
same,TGI,OVCAR-8 ovarian,> 100 µM
same,TGI,SF-295 CNS,> 100 µM
same,TGI,786-0 renal,> 100 µM
same,TGI,OVCAR-3 ovarian,> 100 µM
same,TGI,SF-268 CNS,> 100 µM
same,TGI,SNB-75 CNS,> 54.8 µM
same,TGI,NCI/ADR-RES ovarian,> 100 µM
same,TGI,PC-3 prostate,> 100 µM
same,TGI,SK-OV-3 ovarian,> 100 µM
same,TGI,SNB-19 CNS,> 100 µM
same,TGI,SN12C renal,> 100 µM
same,TGI,UO-31 renal,> 100 µM
same,TGI,MCF7 breast,> 100 µM
same,TGI,SK-MEL-5 melanoma,> 100 µM
same,TGI,DU-145 prostate,> 100 µM
same,TGI,LOX IMVI melanoma,> 100 µM
same,TGI,HOP-92 NSCLC,> 72.6 µM
same,TGI,MOLT-4 leukemia,> 100 µM
same,TGI,ACHN renal,> 100 µM
same,TGI,HCC-2998 colon,> 100 µM
same,TGI,K-562 leukemia,> 100 µM
same,TGI,HCT-15 colon,> 100 µM
same,TGI,KM12 colon,> 100 µM
same,TGI,U251 CNS,> 100 µM
same,TGI,COLO 205 colon,> 100 µM
same,TGI,SF-539 CNS,> 100 µM
same,TGI,NCI-H23 lung,> 100 µM
same,TGI,MDA-MB-435,> 100 µM
same,TGI,CAKI-1 renal,> 100 µM
same,TGI,RPMI-8226 leukemia,> 100 µM
same,TGI,A549 NSCLC,> 100 µM
same,TGI,CCRF-CEM leukemia,> 100 µM
same,TGI,UACC-257 melanoma,> 100 µM
same,TGI,OVCAR-5 ovarian,> 100 µM
same,TGI,HOP-62 NSCLC,> 83.9 µM
same,TGI,NCI-H522 lung,> 27.7 µM
same,TGI,RXF 393 renal,> 100 µM
same,TGI,OVCAR-4 ovarian,> 100 µM
same,TGI,EKVX NSCLC,> 100 µM
same,TGI,M14 melanoma,> 100 µM
same,TGI,UACC-62 melanoma,> 100 µM
same,TGI,TK-10 renal,> 100 µM
same,TGI,NCI-H226 lung,> 100 µM
same,TGI,T-47D breast,> 100 µM
same,TGI,A498 renal,> 92.2 µM
same,TGI,MDA-MB-231 breast,> 100 µM
same,TGI,HCT-116 colon,> 100 µM
same,TGI,SK-MEL-28 melanoma,> 100 µM
same,TGI,HS 578T breast,> 100 µM
same,TGI,HL-60(TB) leukemia,> 100 µM
same,TGI,IGROV1 ovarian,> 100 µM
same,TGI,BT-549 breast,> 100 µM
same,TGI,HT29 colon,> 100 µM
same,TGI,SW-620 colon,> 100 µM
same,TGI,SK-MEL-2 melanoma,> 100 µM
same,TGI,SR leukemia,> 100 µM
